Active and inactive are the calls of the source.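 How the source made its calls: active means growth-inhibition EC50 no more than tenfold above the top tested dose; inconclusive means flat fit between 30% and 70% inhibition, or unreliable fit; inactive means EC50 more than tenfold above the top tested dose.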
system: E. coli NEB5alpha growth, BacTiter-Glo luminescence, 4 h; test: antibacterial activity against E. coli NEB5alpha – luminescence, counter-screen for MEX-5/POS-1 RNA-binding inhibitor project, dose response (AID 1959);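 further: pUC19-transformed ampicillin-resistant cells grown in LB with ampicillin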

SMILES	EC50
CCCSc1nnc(NC(=O)Nc2ccccc2)s1	> 11 µM (inactive)
CCOCCCNC(=O)CCC(=O)NNc1nc2ccccc2c2nc(C)nn12	> 11 µM (inactive)
COc1cccc(C2C3CN(C)CC=C3C(C#N)=C(N)C2(C#N)C#N)c1OC (stereo not given)	> 11 µM (inactive)
O=C(O)CCc1ccc(-c2cccs2)n1-c1ccc(C(=O)O)cc1	> 11 µM (inactive)
O=S(=O)([N-]c1nc2ccccc2nc1-[n+]1ccc(CCCc2ccccc2)cc1)c1cccs1	> 11 µM (inactive)
N=c1c(C(=O)NCC2CCCO2)cc2c(=O)n3ccccc3nc2n1Cc1ccccc1Cl (stereo not given)	> 11 µM (inactive)
CCNC(=S)N(C)CCc1cc2c(c(OC)c1C=C1C(=O)N(C)C(=O)N(C)C1=O)OCO2	> 11 µM (inactive)
CS(=O)(=O)Oc1ccc2c(c1)O/C(=C\C=C\c1ccccc1)C2=O	> 11 µM (inactive)
O=C(NNC(=O)c1csc(-c2cccnc2)n1)c1ccccc1	> 11 µM (inactive)
CCN1C(=O)NC(=O)/C(=C\c2cn(CC(=O)O)c3ccccc23)C1=O	> 11 µM (inactive)
CC(=O)c1ccc2c(c1)C1C=CCC1C(c1cc3c(cc1Br)OCO3)N2 (stereo not given)	> 11 µM (inactive)
O=c1[nH]c2ccccc2nc1/C=C/c1ccc(F)cc1	> 11 µM (inactive)
Cc1[nH]nc(NNC(=O)c2ccccc2)c1[N+](=O)[O-]	> 11 µM (inactive)
C=CCSc1nnc(N2C(=O)C(O)=C(C(=O)c3ccco3)C2c2ccccc2F)s1 (stereo not given)	> 11 µM (inactive)
N#Cc1cc(NC(=O)c2ccc(F)cc2)c(=O)n2c1[nH]c1ccccc12	> 11 µM (inactive)
C(#Cc1ccc2c(c1)COc1c3ccccc3nn1-2)c1ccccc1	> 11 µM (inactive)
COC(=O)C1=COC(C)C2CN3CCc4c([nH]c5cc(OC)c(OC)cc45)C3CC12 (stereo not given)	> 11 µM (inactive)
Oc1ccc(C[C@H]2NCCc3cc(O)c(O)cc32)cc1O	> 11 µM (inactive)
COc1cc2[nH]c(C(=O)NN)c(N)c2cc1OC	> 11 µM (inactive)
COC(=O)c1cc(C(=O)OC)cc(-n2c(C)cc(C(=O)COC(=O)CNS(=O)(=O)c3ccc(C)cc3)c2C)c1	> 11 µM (inactive)
COc1ccc(C(=O)N=c2c(C#N)cc3c(=O)n4cccc(C)c4nc3n2Cc2ccco2)cc1	> 11 µM (inactive)
CCn1cc(C(=O)NCc2ccccn2)c(=O)c2cc(S(=O)(=O)N3CCCCC3)ccc21	> 11 µM (inactive)

SMILES	EC50
N=c1c(S(=O)(=O)c2ccccc2)cc2c(=O)n3ccccc3nc2n1Cc1cccnc1	> 11 µM (inactive)
O=C(NNC(=O)c1ccccc1[N+](=O)[O-])c1csc(N2CCOCC2)n1	> 11 µM (inactive)
COc1ccc(C(=O)/C=C/c2ccc(N3CCCCC3)c([N+](=O)[O-])c2)c(OC)c1	> 11 µM (inactive)
CCOC(=O)C1CCN(C(=O)CCC(=O)NNc2nc3ccccc3c3nc(C)nn23)CC1	> 11 µM (inactive)
COc1cccc(NC(=O)c2ccccc2Br)c1	> 11 µM (inactive)
COc1ccccc1-c1cnn2c(NCc3ccccc3)cc(C)nc12	> 11 µM (inactive)
CN(C)S(=O)(=O)c1cccc(NC(=S)N/N=C/c2ccc(O)c(O)c2O)c1	> 11 µM (inactive)
Cc1ccc(-n2ncc3c(NNC(=O)c4ccco4)ncnc32)cc1C	> 11 µM (inactive)
Cc1ccc(C2c3sc(=O)[nH]c3SC3C(=O)NC(=O)C32)cc1 (stereo not given)	> 11 µM (inactive)
Cc1ccc(N(C)S(=O)(=O)c2c(C)noc2/C=C/N(C)C)cc1	> 11 µM (inactive)
O=C(CN1C(=O)/C(=C\C=C\c2ccccc2)SC1=S)Nc1ccc(F)cc1	> 11 µM (inactive)
CC(C)C1Nc2ccc(S(N)(=O)=O)cc2C2C=CCC21 (stereo not given)	> 11 µM (inactive)
Cc1cnc(C(=O)NNC(=O)c2ccc(Br)cc2)cn1	> 11 µM (inactive)
Cc1c(/C=N/NC(=O)c2cc(=O)[nH]c(=O)[nH]2)c2ccccn2c1C(=O)c1ccccc1	> 11 µM (inactive)
COc1ccc(OC)c(C2C(C(=O)c3ccco3)=C(O)C(=O)N2CCN2CCOCC2)c1 (stereo not given)	> 11 µM (inactive)
COc1ccc2nc3ccccc3nc2c1NC(=O)c1ccccc1Cl	> 11 µM (inactive)
COc1cc(C2C(C#N)=C(N)OC3=C2C(=O)CCC3)cc2c1OCO2 (stereo not given)	> 11 µM (inactive)
CCn1c(/C=C/c2ccc([N+](=O)[O-])o2)nc2ccccc2c1=O	> 11 µM (inactive)
Cc1ccc(Oc2nc(-c3ccccn3)nc3ccccc23)cc1	> 11 µM (inactive)
COC(=O)c1c(NC(=O)CC2Nc3ccccc3NC2=O)sc(C)c1C (stereo not given)	> 11 µM (inactive)
CCCCc1ccc(/C=C2\C(=O)ON=C2c2ccccc2)s1	> 11 µM (inactive)
C(=N\Nc1nc2ccccc2[nH]1)/c1ccccn1	> 11 µM (inactive)

SMILES	EC50
CCOc1ccccc1N1CCN(C(=O)CNC(=O)c2ccccc2F)CC1	> 11 µM (inactive)
COc1ccccc1C(=O)Nc1ccnn1C1CCN(C(C)CSC)CC1 (stereo not given)	> 11 µM (inactive)
Cc1cc(O)c(CN(C)C)c2c1C(=O)/C(=C/c1ccco1)O2	> 11 µM (inactive)
CCOC(=O)C1=C(C)OC(N)=C(C#N)C1c1ccc(O)c(OC)c1 (stereo not given)	> 11 µM (inactive)
COc1cccc(C2C(C#N)=C(N)OC3=C2C(=O)CCC3)c1OC(=O)c1ccco1 (stereo not given)	> 11 µM (inactive)
Cc1oc(/N=C/c2ccc(O)cc2O)c(C#N)c1C	> 11 µM (inactive)
N#CC1=C(N)Oc2ccc3ccc(O)cc3c2C1c1ccsc1 (stereo not given)	> 11 µM (inactive)
Cc1ccc(NC(=O)COc2ccc(/C=C3/SC(=Nc4ccccc4)N(Cc4cccnc4)C3=O)cc2)cc1	> 11 µM (inactive)
CC(C)Cc1nnc(NC(=O)CCC(=O)N2CC(C)CC(C)C2)s1 (stereo not given)	> 11 µM (inactive)
CN(C)c1ccc(N=Cc2c(O)n(CCC3=CCCCC3)c(=O)[nH]c2=O)cc1	> 11 µM (inactive)
CC(C)CNC(=O)C1Nc2ccc(OC(F)(F)F)cc2C2C=CCC12 (stereo not given)	> 11 µM (inactive)
COc1ccc(N=Cc2cc3c(cc2O)OC(N)=C(C#N)C3c2ccccc2)cc1 (stereo not given)	> 11 µM (inactive)
Cc1ccc(NC(=O)CSc2nnc(N)s2)cc1S(=O)(=O)N1CCOCC1	> 11 µM (inactive)
CCOc1ccc(NC(=O)COc2ccccc2)c([N+](=O)[O-])c1	> 11 µM (inactive)
CCOc1cc(/C=C2\SC(=Nc3ccc(CC)cc3)NC2=O)ccc1OCC(=O)O	> 11 µM (inactive)
COC(=O)c1cc2n3ccccc3c(C)c(-c3ccccc3)c-2c1C(=O)OC	> 11 µM (inactive)
CCOC(=O)N1CCC(NC(=O)C(Cc2ccccc2)NC(=O)C2CCCCC2)CC1 (stereo not given)	> 11 µM (inactive)
COC(=O)C1=C(C)N(c2ccccc2)/C(=C/c2ccco2)C1=O	> 11 µM (inactive)
Cc1ncc(CO)c(/C=N/NC(=O)c2cc(Br)ccc2O)c1O	> 11 µM (inactive)
Cc1cc(CC(C)C)n(-c2nc3ccccc3c(=O)n2OCc2ccccc2)n1	> 11 µM (inactive)
[O-]/C(=C(\C(=S)NCc1ccco1)[n+]1ccccc1)c1ccccc1Br	> 11 µM (inactive)
CN1C=C/C(=C\c2cc[n+](C)c3ccccc23)c2ccccc21	> 11 µM (inactive)

SMILES	EC50
COc1ccc(/C=C/C(=O)c2c(C)cc(C)[nH]c2=O)c2ccccc12	> 11 µM (inactive)
COC(=O)c1ccc(-n2c(C)cc(C(=O)COC(=O)CNS(=O)(=O)c3ccc(C)cc3)c2C)cc1	> 11 µM (inactive)
S=C(NCc1ccncc1)Nc1ccc(Cl)cc1Cl	> 11 µM (inactive)
CCCn1cc2c3c(cccc31)C1CC(C)CN(C)C1C2 (stereo not given)	> 11 µM (inactive)
O=C1N=c2ccc(Br)cc2=C1c1sc(=O)[nH]c1O	> 11 µM (inactive)
CC1(C)CC(=O)C2=C(C1)OC(N)=C(C#N)C2c1cccc(OC(=O)c2ccco2)c1 (stereo not given)	> 11 µM (inactive)
O=[N+]([O-])c1ccc(C2=Nc3cc(Cl)ccc3OC2)cc1	> 11 µM (inactive)
CCCCOC(=O)Cn1c2ccc(OC)cc2c2nc3ccccc3nc21	> 11 µM (inactive)
O=S(=O)(Nc1ccc(O)c2ccccc12)c1ccc(Br)cc1	> 11 µM (inactive)
O=C(O)CSc1cc(NS(=O)(=O)c2ccc(Cl)cc2)c2ccccc2c1O	> 11 µM (inactive)
CCc1ccc(/C=C2\SC(=S)N(CCCC(=O)Nc3ccccn3)C2=O)cc1	> 11 µM (inactive)
Cc1cc(/C=N/Nc2ccc([N+](=O)[O-])cn2)c(C)n1-c1cccc(C(=O)O)c1	> 11 µM (inactive)
O=C(/C=C/c1c(Cl)cccc1Cl)N1CCOCC1	> 11 µM (inactive)
O=C(N/N=C/c1cccnc1)c1cc(O)c(O)c(O)c1	> 11 µM (inactive)
CC1C2C(C)N(C)C(=O)N(C)C2N(C)C(=O)N1C (stereo not given)	> 11 µM (inactive)
Cc1ccc(NC(=O)CN2C(=O)S/C(=C\c3cccn3-c3cccc(C(=O)O)c3)C2=O)cc1C	> 11 µM (inactive)
COc1ccc2c(-c3ccccc3)cc(SCC(N)=O)nc2c1	> 11 µM (inactive)
O=c1[nH]c(=S)[nH]c2[nH]c(=S)[nH]c12	> 11 µM (inactive)
Cc1ccc(/C=C2/C(=O)NC(=O)N(CCc3ccc(F)cc3)C2=O)o1	> 11 µM (inactive)

— PubChem BioAssay AID1959 (Broad Institute, 2009)
